Source: patent EP1709964A2, “A method of cosmetic depigmentation care by applying at least one aurone” (ENGELHARD LYON, priority 2005, dated 2006)
Where two headings read alike, the source gives them in different places.

Experiments:
tyrosinase from mushroom = experiment: In vitro test of the inhibition of isolated tyrosinase (L-DOPA to dopachrome, OD 490 nm); type: biochemical; settings: 490 nm
Excerpt: Tyrosinase catalyses the formation of L-dopaquinone, and then dopachrome, from L-Dopa. Dopachrome is a colored compound which is quantifiable by visible spectrophotometry at 490 nm. The use of an active which is capable of modifying the enzymatic activity manifests itself by a variation in the optical density at 490nm.
The ratio of the rates of formation of the dopachrome enables the activations or the inhibitions obtained with the various molecules tested to de determined precisely.
The sample to be tested is incubated in the presence of tyrosinase from mushroom (Sigma) for 5 minutes under agitation. L-DOPA (Sigma), substrate of the tyrosinase, is incubated for 10 minutes in the dark in the presence or the absence of the molecules to be tested. The calculation of the percentage inhibition is made by comparing the OD of the test to the OD of the negative control without molecule.
Within the context of this in vitro test, the aurone derivatives were tested at final concentrations of 10^-4M and 10^-5M.

Human tyrosinase [1] = target: T1, Human tyrosinase (Homo sapiens, UniProt P14679); experiment: Inhibition of human tyrosinase in a monolayer after 24 h application of the actives on normal human melanocytes (MBTH/L-Dopa, OD 490 nm/protein); type: cell-based; settings: for Inhibition (%): model of Example 15; for inhibition at 1000 µM: 10^-3 M
T1 construct: Normal human melanocytes (originating from abdominal plasty) are sown in a 24-well plate; endogenous in cells; host or cells: normal human melanocytes from abdominal plasty; donors of light, brown and black phototype
T1 sequence (P14679 19-529): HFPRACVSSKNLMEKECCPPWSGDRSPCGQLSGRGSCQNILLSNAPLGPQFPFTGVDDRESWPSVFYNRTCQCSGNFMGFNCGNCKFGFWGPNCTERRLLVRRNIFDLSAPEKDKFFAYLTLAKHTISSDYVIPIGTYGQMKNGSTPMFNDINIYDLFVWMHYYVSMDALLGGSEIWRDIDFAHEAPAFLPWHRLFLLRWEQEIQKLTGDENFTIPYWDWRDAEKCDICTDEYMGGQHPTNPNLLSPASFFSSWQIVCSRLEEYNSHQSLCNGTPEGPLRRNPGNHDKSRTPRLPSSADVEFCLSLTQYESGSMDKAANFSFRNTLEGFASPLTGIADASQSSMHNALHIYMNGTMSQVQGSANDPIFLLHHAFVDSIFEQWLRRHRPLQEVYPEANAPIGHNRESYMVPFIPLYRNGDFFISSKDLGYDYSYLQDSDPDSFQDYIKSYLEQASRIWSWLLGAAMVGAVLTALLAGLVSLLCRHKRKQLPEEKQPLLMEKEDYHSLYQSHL
Method: Normal human melanocytes (originating from abdominal plasty) are sown in a 24-well plate at the rate of 80,000 cells per well. They are cultivated up to confluence and the actives are applied for 24 hours in the culture media. After 24 hours, the media are removed and the melanocytes are picked up by mechanical action. An extraction is made by heat shock and the supernatants are then recovered and then incubated with MBTH (Sigma) and L-Dopa (Sigma).
The compound obtained in Example 9b was tested on melanocytes originating from various donors but of light phototypes according to the method described in Example 15. […] Table 6 : Inhibition of tyrosinase by compound 9b on 4 different donors.
The compound obtained in Example 9b is tested on cultures of melanocytes originating from 2 donors of brown phototypes and from one donor of negroid phototype. The method applied is that described in Example 15.
(§1) A study is made with molecules known in the literature for their depigmenting activity. These molecules are applied to the model described in Example 15 so as to compare their efficiency with respect to the aurones described above.

normal human melanocytes = experiment: Cytotoxicity by PNPP determination (percentage viability); type: cell-based; settings: 24 hours at 37°C, with respect to non-treated wells
Method: The cytotoxicity of the actives is studied on normal human melanocytes in a 24-well plate by a determination with PNPP (P-nitrophenyl phosphate), a substance which is converted into p-nitrophenol by the intracellular acid phosphatases of viable cells.
The absorbance of p-nitrophenol at 405 nm is directly proportional to the number of viable cells.
The actives are tested at 2 different concentrations (10^-4 M and 10^-5 M) and are added to the culture medium and are incubated at 37°C for 24 hours. The determination with PNPP is carried out on a cell mat and the results are expressed as a percentage viability with respect to the negative control (non-treated wells). The results obtained are summarized in Table 9 below : Tableau 9 : Percentages viability obtained for the various aurone derivatives on normal human melanocytes (the molecules were tested at 2 concentrations 10^-4 and 10^-5 M.

melanocytes = system: melanocytes
Excerpt: as §1

Human tyrosinase [2] = target: T1, Human tyrosinase; experiment: In vitro test of the inhibition of human tyrosinase from melanocyte extract (L-Dopa/MBTH, OD 490 nm); type: biochemical; settings: isolated human tyrosinase, read-out: Inhibition of human tyrosinase, percentage inhibition
Method: Human tyrosinase obtained from melanocyte extracts originating from healthy donors catalyses the formation of L-Dopaquinone from L-Dopa. L-dopaquinone can be quantified by visible spectrophotometry at 490 nm by virtue of a chromogen : 3-methyl-2-benzothiazolinone hydrazone (MBTH).
The melanocyte extract is obtained after lysis of the cell membranes of the normal human melanocytes which lysis is carried out by a heat shock. The supernatant is recovered and then incubated with MBTH (Sigma) and L-Dopa (Sigma).

[3] = 10^-4M, 24 hours, read-out: Inhibition of human tyrosinase after application on normal human melanocytes, percentage inhibition
[4] = 10^-5M, 24 hours, read-out: Inhibition of human tyrosinase after application on normal human melanocytes, percentage inhibition

Compound | Inhibition of tyrosinase from mushroom, percentage inhibition (tyrosinase from mushroom; 10^-4M) | Inhibition of tyrosinase from mushroom, percentage inhibition (tyrosinase from mushroom; 10^-5M) | inhibition at 100 µM (Human tyrosinase [1]; [3]) | inhibition at 10 µM (Human tyrosinase [1]; [4]) | Percentages viability (normal human melanocytes; 10^-4 M) | Percentages viability (normal human melanocytes; 10^-5 M) | further results
COc1cc(OC)c2c(c1)O/C(=C\c1ccccc1)C2=O [Example 5, (Z)-2-Benzylidene-4,6-dimethoxybenzofuran-3(2H)-one] | 0 ± 1.58% | 0 ± 0.28% | 0% | 0% | 83.1% | 98.55% | 
O=C1O[C@H]([C@@H](O)CO)C(O)=C1OP(=O)(O)O [VitC PMG, reference compound] |  |  |  |  |  |  | Inhibition (%) (Human tyrosinase [1]; 0.03%): 2.93%; Inhibition (%) (Human tyrosinase [1]; 0.3%): 1.55%; Inhibition (%) (Human tyrosinase [1]; 3%): -3.49%; cytotoxicity (melanocytes): no
4,6-Dihydroxybenzofuran-3(2H)-one (R1 = OH) and 6-Hydroxybenzofuran-3(2H)-one (R1 = H) [Example 2] |  |  |  |  | 103.84% | 126.09% | Inhibition of human tyrosinase after application on normal human melanocytes, percentage inhibition (Human tyrosinase [1]; 10^-5M, 24 hours): 9.69%
COc1cc(OC)c2c(c1)OCC2=O [Example 4, 4,6-Dimethoxybenzofuran-3(2H)-one] |  |  | 0% | 0% | 106.77% | 85.33% | 
COc1cc(O)c2c(c1)O/C(=C\c1ccccc1)C2=O [Example 6, (Z)-2-Benzylidene-4-hydroxy-6-methoxybenzofuran-3(2H)-one] | 31.22 ± 3.94% | 0 ± 2.27% |  | 0% |  | 121.56% | 

Now from value to compound, other results behind:

Inhibition of tyrosinase from mushroom, percentage inhibition (tyrosinase from mushroom; 10^-4M) | Inhibition of tyrosinase from mushroom, percentage inhibition (tyrosinase from mushroom; 10^-5M) | inhibition at 100 µM (Human tyrosinase [1]; [3]) | inhibition at 10 µM (Human tyrosinase [1]; [4]) | Compound | Percentages viability (normal human melanocytes; 10^-4 M) | Percentages viability (normal human melanocytes; 10^-5 M) | further results
0 ± 1.33% | 0 ± 3.90% | 14.4% | 27.4% | COc1cc(OC)c2c(c1)O/C(=C\c1ccc(O)cc1)C2=O [Example 5a, (Z)-4,6-dimethoxy-2-(4'-hydroxybenzylidene)benzofuran-3(2H)-one] | 104.53% | 90.87% | 
0 ± 4.21% | 0 ± 2.5% |  | 19.4% | CCc1ccc(/C=C2\Oc3cc(OC)cc(OC)c3C2=O)cc1 [Example 5b, (Z)-4,6-dimethoxy-2-(4'-ethylbenzylidene)benzofuran-3(2H)-one] |  | 99.62% | 
0 ± 1.64% | 1.07 ± 4.37% | 0% | 4.27% | COc1cc(OC)c2c(c1)O/C(=C\c1ccc(SC)cc1)C2=O [Example 5c, (Z)-4,6-dimethoxy-2-(4'-methylthiobenzylidene)benzofuran-3(2H)-one] | 80.08% | 136.13% | 
0 ± 3.51% | 0 ± 3.94% | 2.31% | 0% | COc1cc(O)c2c(c1)O/C(=C\c1ccc(C#N)cc1)C2=O [Example 6d] | 85.65% | 119.36% | 
23.85 ± 2.42% | 0 ± 1.73% | 75.3% | 35.2% | O=C1/C(=C/c2ccc(O)cc2)Oc2cc(O)cc(O)c21 [Example 9b, (Z)-4,6-Dihydroxy-2-(4'-hydroxybenzylidene)benzofuran-3(2H)-one] | 90.31% | 128.39% | inhibition at 100 µM (Human tyrosinase [2]; 10^-4M): 18 ± 1.6%; inhibition at 10 µM (Human tyrosinase [2]; 10^-5M): 5.62 ± 2.73%; Inhibition of human tyrosinase after application on normal human melanocytes, percentage inhibition (Human tyrosinase [1]; 10^-4M, 24 hours): 75.31 ± 8.51%; Inhibition of human tyrosinase after application on normal human melanocytes, percentage inhibition (Human tyrosinase [1]; 10^-5M, 24 hours): 35.23 ± 2.34%; inhibition at 100 µM (Human tyrosinase [1]; Donor 1 (light phototype), 10^-4 M, read-out: Inhibition of tyrosinase): 37.8%; inhibition at 10 µM (Human tyrosinase [1]; Donor 1 (light phototype), 10^-5 M, read-out: Inhibition of tyrosinase): -9.77%; inhibition at 100 µM (Human tyrosinase [1]; Donor 2 (light phototype), 10^-4 M, read-out: Inhibition of tyrosinase): 43%; inhibition at 10 µM (Human tyrosinase [1]; Donor 2 (light phototype), 10^-5 M, read-out: Inhibition of tyrosinase): -7.56%; inhibition at 100 µM (Human tyrosinase [1]; Donor 3 (light phototype), 10^-4 M, read-out: Inhibition of tyrosinase): 63.4%; inhibition at 10 µM (Human tyrosinase [1]; Donor 3 (light phototype), 10^-5 M, read-out: Inhibition of tyrosinase): 24.7%; inhibition at 1000 µM (Human tyrosinase [1]; Donor A, brown phototype, read-out: Inhibitions of tyrosinase): 97.5%; inhibition at 100 µM (Human tyrosinase [1]; Donor A, brown phototype, 10^-4 M, read-out: Inhibitions of tyrosinase): 45%; inhibition at 10 µM (Human tyrosinase [1]; Donor A, brown phototype, 10^-5 M, read-out: Inhibitions of tyrosinase): 25.4%; inhibition at 1000 µM (Human tyrosinase [1]; Donor B, brown phototype, read-out: Inhibitions of tyrosinase): 91.8%; inhibition at 100 µM (Human tyrosinase [1]; Donor B, brown phototype, 10^-4 M, read-out: Inhibitions of tyrosinase): 67%; inhibition at 10 µM (Human tyrosinase [1]; Donor B, brown phototype, 10^-5 M, read-out: Inhibitions of tyrosinase): 31.8%; inhibition at 100 µM (Human tyrosinase [1]; Donor S (light phototype), 10^-4 M, read-out: Inhibition of tyrosinase): 75.3%; inhibition at 10 µM (Human tyrosinase [1]; Donor S (light phototype), 10^-5 M, read-out: Inhibition of tyrosinase): 35.2%; inhibition at 100 µM (Human tyrosinase [1]; Donor, 10^-4 M, read-out: Inhibition): 65.8%; inhibition at 10 µM (Human tyrosinase [1]; Donor, 10^-5 M, read-out: Inhibition): 39.5%
23.65 ± 9.36% | 0 ± 5.84% |  | 14.2% | COc1cc(O)c2c(c1)O/C(=C\c1ccc(SC)cc1)C2=O [Example 6c] |  | 116.24% | 
0 ± 2.42% | 0 ± 5.47% | 0% | 0% | COc1cc(OC)c2c(c1)O/C(=C\c1ccc(C#N)cc1)C2=O [Example 5d, (Z)-2-(4-cyanobenzylidene)-4,6-dimethoxybenzofuran-3(2H)-one] | 98.93% | 96.51% | 
54.57 ± 3.01% | 14.63 ±6.73% |  | 4.52% | CCc1ccc(/C=C2\Oc3cc(O)cc(O)c3C2=O)cc1 [Example 7b] | 63.52% | 143.15% | 
